Where two headings read alike, the source gives them in different places.
Key:
[1] = system: IFNγ-induced NO production in RAW 264.7 cells; experiment: Nitric Oxide Suppression Assay (IFNγ-induced NO, Griess nitrite readout); type: cell-based, mouse; conditions: for IC50: Mus musculus; for Avg NO IC50 Relative to RTA402 (fold): Table 2, ratio to RTA402
Method: Tissue Culture: RAW 264.7, a mouse macrophage cell line, was obtained from American Type Culture Collection (Manassas VA) and maintained in the log phase of growth in Roswell Park Memorial Institute Medium 1640 (RPMI 1640) supplemented with 10% heat inactivated fetal bovine serum and 1% penicillin-streptomycin. Cells were cultured and maintained in a humidified incubator at 37° C. under 5% C02. Cells were sub-cultured every 2-4 days. All cell culture supplies were obtained from Life Technologies (Grand Island, NY) and VWR (Radnor, PA).
Nitric Oxide Suppression Assay. RAW 264.7 cells were plated 1 day in advance of experimental treatments at a concentration of 30,000 cells per well onto Falcon-96 well clear bottom plates (Corning, NY) in a total volume of 200 μL per well using RPMI 1640 supplemented with 0.5% fetal bovine serum and 1% penicillin-streptomycin. The next day, cells were pretreated with compounds serially diluted from 1000×stocks. All compounds were dissolved in dimethyl sulfoxide (DMSO) usually at 10 mM stock solutions. Compounds were subsequently diluted in DMSO and RPMI 1640. Each well received a final concentration of 0.1% DMSO. Cells were pretreated for 2 hours and incubation at 37° C., followed by treatment with 20 ng/mL of interferon gamma (R&D Systems, Minneapolis, MN) per well for 24 hours. The next day, a nitrite standard was serially diluted from 100 μM to 1.6 μM in RPMI 1640. Afterwards, 50 μL of cell culture supernatant was transferred from each well into a new Falcon-96 well clear bottom plate. Nitrite was measured as surrogate for nitric oxide using Promega's Griess Detection Kit #G2930 (Madison, WI) which involves the addition of 50 μL of the provided sulfanilamide solution to each well of the transferred cell culture supernatant and standards, followed by a 10-minute incubation at room temperature. Next, 50 μL of the provided N-1-napthylethylenediamine dihydrochloride (NED) solution was added to the sulfanilamide reaction and incubated for 10 minutes at room temperature in the dark. Afterwards, air bubbles were removed using ethanol vapor and absorbance was measured using a Spectramax M2e plate reader with a wavelength set to 525 nm. Viability was assessed using WST-1 cell proliferation reagent from Roche (Basel, Switzerland). After media was removed for the Nitric Oxide suppression assay, 15 μL of WST-1 reagent was added to each well of cells. Plates were briefly mixed on an orbital shaker and the cells were incubated at 37° C. for 30-90 minutes. Absorbance was measured using a Spectramax M2e plate reader with wavelengths set to 440 nm and 700 nm.
For the ability of compounds to suppress the increase in nitric oxide release caused by interferon gamma, the absolute amount of nitrite that was produced in each well was extrapolated from the nitrite standards using a linear regression fit. All values were then normalized to the DMSO-interferon gamma treated wells and plotted as percent nitric oxide. IC50 values were calculated using Excel and/or GraphPad Prism (San Diego, CA).

[2] = system: Nrf2 / ARE-dependent luciferase in AREc32 reporter cell line; experiment: AREc32 luciferase reporter activation (Nrf2 induction); type: cell-based, human; conditions: for EC (2-fold): Homo sapiens, Arec32; for Relative Avg AREc32 EC2X Relative to RTA402 (fold): ratio to RTA402
Method: Effect on Ludferase Reporter Activation. Nrf2 is a transcription factor that binds to the antioxidant response element (ARE) sequence in the promoter regions of its target genes. AREc32 reporter cell line (derived from human breast carcinoma MCF7 cells) was obtained was from CXR Bioscience Limited (Dundee, UK) and cultured in DMEM (low glucose) supplemented with 10% FBS, 1% penicillin/streptomycin, and 0.8 mg/ml Geneticin (G418). This cell line is stably transfected with a luciferase reporter gene under the transcriptional control of eight copies of the rat GSTA2 ARE sequence (5′-GTGACAAAGCA-3′) (Wang et al., 2006). Expression of Firefly luciferase from this reporter plasmid is controlled by binding of Nrf2 to these ARE sequences. Measurement of ARE-dependent luciferase activity allows quantitative assessment of Nrf2 induction. AREc32 cell line has previously been used in studies characterizing different Nrf2 activators (Dinkova-Kostova & Wang, 2011; Roubalová et al., 2016; Roubalová et al, 2017; Wu et al, 2012).
The effect of several compounds disclosed herein on luciferase reporter activation was assessed in the AREc32 reporter cell line (see Table 10 and Table 11). This cell line is derived from human breast carcinoma MCF-7 cells and is stably transfected with a luciferase reporter gene under the transcriptional control of eight copies of the antioxidant response element from the rat Gsta2 gene, an Nrf2 target gene (Frilling et al., 1990). AREc32 cells were plated in black 96-well plates in 200 μL media at 20,000 cells per well. Twenty-four hours after plating, cells were treated with vehicle (DMSO) or test compounds at concentrations ranging from 0.03 to 1000 nM for nineteen hours. Media was removed and 100 μL of 1:1 mixture of the One-Glo Luciferase assay reagent and culture medium was added to each well. After incubation for 5 min at room temperature, the luminescence signal was measured on a PHERAstar plate reader. The EC2X value was determined using Excel and GraphPad Prism software. The fold increase in luminescence signal for cells treated with each concentration of compound relative to cells treated with vehicle was determined and a dose-response curve was generated. The dose-response curve was fit using nonlinear regression analysis and used to extrapolate the EC2X value. The EC2X value is defined as the concentration of test compound required to increase the luminescence signal 2-fold above levels in vehicle-treated samples.

[3] = RAW264.7, Table 2, RAW 264.7 cells, 2 h pretreatment, 20 ng/mL interferon gamma 24 h, read-out: Avg NO IC50 (nM) (Mean ± SD)
[4] = RAW264.7, Table 3, ursolic acid derivatives, read-out: Avg NO IC50 (nM) (Mean ± SD)
[5] = Table 2, concentration increasing luminescence 2-fold above vehicle, 19 h treatment, read-out: Avg AREc32 EC2X (nM) (Mean ± SD)
[6] = Table 3, ursolic acid derivatives, read-out: Avg ARE EC-2X (nM) (Mean ± SD)

Row | IC50 [1, 3] [nM] | IC50 [1, 4] [nM] | Avg NO IC50 Relative to RTA402 (fold) [1] [fold] | IC50 ([1]; RAW264.7, Table 3, oleanolic acid derivative analogs, read-out: Avg NO IC50) [nM] | SMILES | EC (2-fold) [2, 5] [nM] | EC (2-fold) [2, 6] [nM] | Relative Avg AREc32 EC2X Relative to RTA402 (fold) ([2]; Table 2) | EC (2-fold) ([2]; Table 3, oleanolic acid derivative analogs, read-out: Avg ARE EC-2X) [nM]
1 | 5.41 ± 2.52 | 5.41 ± 2.52 | 1.79 ± 0.77 | – | C[C@@H]1[C@H]2[C@H]3C(=O)C=C4[C@@]5(C)C=C(C#N)C(=O)C(C)(C)[C@@H]5CC[C@@]4(C)[C@]3(C)CC[C@@]2(CN2CCOC2=O)CC[C@H]1C [Compound T41] | 4.73 ± 2.12 | 4.73 ± 2.12 | 0.354 ± 0.155 | –
2 | 4.2 ± 2.4 | 4.2 ± 2.4 | 1.99 ± 0.20 | – | C[C@@H]1[C@H]2[C@H]3C(=O)C=C4[C@@]5(C)C=C(C#N)C(=O)C(C)(C)[C@@H]5CC[C@@]4(C)[C@]3(C)CC[C@@]2(CN2CCCC2=O)CC[C@H]1C [Compound T15] | 5.21 ± 1.11 | 5.21 ± 1.11 | 0.447 ± 0.085 | –
3 | 3.65 ± 1.87 | – | 1.62 ± 0.54 | – | COCCc1noc([C@]23CC[C@@H](C)[C@H](C)[C@H]2[C@H]2C(=O)C=C4[C@@]5(C)C=C(C#N)C(=O)C(C)(C)[C@@H]5CC[C@@]4(C)[C@]2(C)CC3)n1 [Compound T7] | 6.16 ± 0.7 | – | 0.595 ± 0.079 | –
4 | 36.1 ± 13.8 | – | 20.20 ± 5.71 | – | C[C@@H]1[C@H]2[C@H]3C(=O)C=C4[C@@]5(C)C=C(C#N)C(=O)C(C)(C)[C@@H]5CC[C@@]4(C)[C@]3(C)CC[C@@]2(C(=O)NO)CC[C@H]1C [Compound T72] | 17.2 ± 7 | – | 1.71 ± 0.33 | –
5 | – | – | – | 4.3 | CC1(C)CC[C@]2(N3CCC3=O)CC[C@]3(C)[C@H](C(=O)C=C4[C@@]5(C)C=C(C#N)C(=O)C(C)(C)[C@@H]5CC[C@]43C)[C@@H]2C1 [CC74, reference compound] | – | – | – | 36.1
6 | 15 ± 3.7 | 15 ± 3.7 | 7.63 ± 2.99 | – | C[C@@H]1[C@H]2[C@H]3C(=O)C=C4[C@@]5(C)C=C(C#N)C(=O)C(C)(C)[C@@H]5CC[C@@]4(C)[C@]3(C)CC[C@@]2(N)CC[C@H]1C [Compound T16] | 20.5 ± 6 | 20.5 ± 6 | 1.61 ± 0.084 | –
7 | 4.33 ± 1.45 | – | 2.10 ± 0.49 | – | C[C@@H]1[C@H]2[C@H]3C(=O)C=C4[C@@]5(C)C=C(C#N)C(=O)C(C)(C)[C@@H]5CC[C@@]4(C)[C@]3(C)CC[C@@]2(c2nc(CF)no2)CC[C@H]1C [Compound T11] | 8.74 ± 2.61 | – | 0.685 ± 0.050 | –
8 | 4.03 ± 1.66 | – | 1.15 ± 0.40 | – | C[C@@H]1[C@H]2[C@H]3C(=O)C=C4[C@@]5(C)C=C(C#N)C(=O)C(C)(C)[C@@H]5CC[C@@]4(C)[C@]3(C)CC[C@@]2(CNC(=O)N2CCC2)CC[C@H]1C [Compound T27] | 1.62 ± 0.22 | – | 0.144 ± 0.008 | –
9 | 5.53 ± 1.8 | 5.5 ± 1.8 | 2.03 ± 0.67 | – | C[C@@H]1[C@H]2[C@H]3C(=O)C=C4[C@@]5(C)C=C(C#N)C(=O)C(C)(C)[C@@H]5CC[C@@]4(C)[C@]3(C)CC[C@@]2(CN2CCN(C)C2=O)CC[C@H]1C [Compound T44] | 5.73 ± 1.79 | 5.73 ± 1.79 | 0.53 ± 0.13 | –
10 | 1.81 ± 0.331 | – | 1.24 ± 0.13 | – | C[C@@H]1[C@H]2[C@H]3C(=O)C=C4[C@@]5(C)C=C(C#N)C(=O)C(C)(C)[C@@H]5CC[C@@]4(C)[C@]3(C)CC[C@@]2(c2nc(CCO)no2)CC[C@H]1C [Compound T5] | 2.4 ± 0.75 | – | 0.224 ± 0.196 | –
11 | 16.9 ± 5 | 16.9 ± 5 | 4.94 ± 1.27 | – | Cc1nnc([C@]23CC[C@@H](C)[C@H](C)[C@H]2[C@H]2C(=O)C=C4[C@@]5(C)C=C(C#N)C(=O)C(C)(C)[C@@H]5CC[C@@]4(C)[C@]2(C)CC3)o1 [Compound T69] | 8.08 ± 1.98 | 8.08 ± 1.98 | 0.673 ± 0.139 | –
12 | 8.75 ± 4.81 | – | 2.31 ± 0.20 | – | C[C@@H]1[C@H]2[C@H]3C(=O)C=C4[C@@]5(C)C=C(C#N)C(=O)C(C)(C)[C@@H]5CC[C@@]4(C)[C@]3(C)CC[C@@]2(CCC(=O)O)CC[C@H]1C [Compound T77] | 3.16 ± 1.11 | – | 0.263 ± 0.085 | –
13 | 14.6 ± 3 | 14.6 ± 3 | 5.21 ± 2.77 | – | C[C@@H]1[C@H]2[C@H]3C(=O)C=C4[C@@]5(C)C=C(C#N)C(=O)C(C)(C)[C@@H]5CC[C@@]4(C)[C@]3(C)CC[C@@]2(CN2CCC2)CC[C@H]1C [Compound T55] | 14.4 ± 1.3 | 14.4 ± 1.3 | 1.12 ± 0.09 | –
14 | 19.1 ± 4.9 | – | 12.6 ± 1.9 | – | CNC(=O)CC[C@]12CC[C@@H](C)[C@H](C)[C@H]1[C@H]1C(=O)C[C@@H]3[C@@]4(C)C=C(C#N)C(=O)C(C)(C)[C@@H]4CC[C@@]3(C)[C@]1(C)CC2 [Compound T104] | 29.5 ± 2.5 | – | 3.15 ± 0.64 | –
15 | 19.7 ± 1.8 | – | 13 ± 2.7 | – | C[C@@H]1[C@H]2[C@H]3C(=O)C=C4[C@@]5(C)C=C(C#N)C(=O)C(C)(C)[C@@H]5CC[C@@]4(C)[C@]3(C)CC[C@@]2(C(=O)N2CCCC2)CC[C@H]1C [Compound T71] | 29.3 ± 8.1 | – | 2.95 ± 0.14 | –
16 | 4.69 ± 1.87 | – | 2.44 ± 1.39 | – | CNC(=O)C[C@]12CC[C@@H](C)[C@H](C)[C@H]1[C@H]1C(=O)C=C3[C@@]4(C)C=C(C#N)C(=O)C(C)(C)[C@@H]4CC[C@@]3(C)[C@]1(C)CC2 [Compound T91] | 2.96 ± 0.77 | – | 0.359 ± 0.078 | –

Source: patent US20240140986A1, “SYNTHETIC URSOLIC ACID DERIVATIVES AND METHODS OF USE THEREOF” (REATA PHARMACEUTICALS, INC., priority 2021, published 2024)
